This is an account of results in patent publication US20260306463A1, “SIK INHIBITORS TO TREAT CHRONIC KIDNEY DISEASE” (The General Hospital Corporation, priority 2023, published 2026).

Assay [1] has as its system YAP/TAZ responsive reporter. Description: YAP/TAZ responsive luciferase reporter assay. The format is cell-based, mouse (NIH3T3 cells). As to conditions: 24 hours; for TGFß-stimulated YAP/TAZ reporter activity: TGFß stimulation. The method, then:
FIGS. 14A-14E. SIK pathway controls YAP/TAZ-dependent myofibroblast activation in kidney Gli1 cells. KGlil cells were treated as indicated for 48 hours followed by (A) immunoblotting and (B) RT-qPCR. (C) KGlil cells were treated±TGFß (5 ng/mL) or verteporfin (1 μM) for 48 hours followed by imnunoblotting. (D) Luciferase assay from cells were transfected with a YAP/TAZ responsive reporter. SIK inhibitor and forskolin both block basal and TGFß-stimulated-YAP/TAZ reporter activity. (E) Top, KGlil cells were treated for 24 hours as indicated followed by immunoblotting. Bottom, kidney lysates from adenine diet CKD mice were analyzed by immunoblotting as indicated.
To assess the signal of YAP/TAZ responsive reporter, the mouse fibroblast cell line NIH3T3 cells were transfected 24 hours after plating at 50,000 cells/ml in a 10 cm dish by using 15 μl Polyjet transfection reagent (SignaGen Laboratories, SL100688) and 5 μg of 8xGTIIC-luciferase construct. 48 hours after, the cells were then trypsinized and plated on a black 96-well plate and treated the next day for 24 hours. The luciferase and renilla signals were read using Renilla Luciferase Assay System kit (Promega, E2810) and EnVision plate reader (PerkinElmer).
(In general: A reporter such as luciferase makes a cellular process visible.)

For a further assay, the system named is human kidney organoids. Briefly: cisplatin injury of human kidney organoids: immunostaining, organoid size. The format is cell-based. To be noted: intermittent cisplatin, 5 treatments. The method, then: FIG. 7. SK-124 preserves human kidney organoid integrity in cisplatin injury model. Human kidney organoids derived from H9 embryonic stem cells were treated with intermittent cisplatin (5 separate treatments) based on published protocols along with the indicated agent. Organoids were cryo-sectioned and immuno-stained with the indicated markers. The top panels show low power images and the bottom panels focus on regions of proximal tubule cells. The graph measures the mean diameter of organoids in the control (no cisplatin), cisplatin+DMSO, and cisplatin+SK-124 treatment groups.
BJFF human induced pluripotent stem cells (hPSCs) were maintained on Geltrexcoated (Thermo Fisher Scientific) plates using StemFit Basic04 Complete (Ajinomoto Co. Inc.) as previously reported(25). The cells were passaged weekly using Accutase (STEMCELL Technologies) for dissociation and Y27632 (Tocris) for adhesion. Directed differentiation of hPSCs into kidney organoids has been published elsewhere (29). Briefly, hPSCs were differentiated into metanephric mesenchyme cells on day 8 by a three-step directed differentiation protocol. Metanephric mesenchyme was transferred into suspension culture in 96-well ultralow adhesion plates (Coming) and further differentiated into kidney organoids, as previously reported(25). Quality control measures of SIX2 immunostaining on day 8 of differentiation and CDH1, LTL, PODXL, CD146, MEIS1/2/3, and SYTOX-blue staining on day 21 were performed on all batches of kidney organoids to limit batch-to-batch heterogeneity. Kidney organoids were maintained in 200 μl of basal media consisting of Advanced RPMI (Thermo Fisher Scientific) and GlutaMAX (Thermo Fisher Scientific) in 96-well plates, as previously reported. Media changes were conducted three times weekly with removal of 90 [l and addition of 100 μl of fresh basal media.
For cisplatin induced injury, day 49 organoids were treated with 5 μM cisplatin in basal media after full media change. After 24 hours, full media exchanges were performed. This 24-hour treatment was performed twice a week, on day 52-53, day 56-57, day 59-60, and day 63-64 as well, for a total of five cisplatin treatments. Samples were obtained for RT-qPCR and immunostaining immediately following each 24-hour treatment with cisplatin, and from corresponding controls.
Following the treatment, the organoids were collected and immediately fixed in 4% PFA in PBS for 1 hour at room temperature, submerged in 30% sucrose overnight at 4° C., then embedded in O.C.T. Compound (4585. Fisher HealthCare). Subsequently, […] frozen sections were prepared via cryo-sectioning by a cryostat. After 1 hr blocking at room temperature, the sections were treated overnight at 4° C. with primary antibodies in antibody dilution buffer (ADB) with biotinylated LTL (1:200, B-1325, Vector), rat anti-CDH1 (1:500, ab11512, Abcam), goat anti-PODXL (1:500, AF1658, R&D Systems), as well as the antibody of interest, either mouse anti-p21 (1:200, NBP2-43697, Novus Biologicals), or rabbit anti-γH2AX (1:100, 2577, Cell Signaling) antibodies. For the optimum labeling of LTL by biotin/streptavidin interaction, the Streptavidin/Biotin Blocking Kit (SP-2002, Vector Laboratories) was applied according to the manufacturer's instructions. After washing, the samples were stained for 1 hour at RT with the nuclear dye-SYTOX Blue (1:500. S 11348, Invitrogen) and the corresponding secondary antibodies in ADB such as streptavidin-AF750 (1:500, S21384, Invitrogen), donkey anti-rat IgG-AF594 (1:500, A21209, Invitrogen), donkey anti-goat IgG-AF555 (1:500, A21432, Invitrogen), and donkey anti-rabbit IgG-AF488 (1:500, A21206, Invitrogen) for γH2AX or donkey anti-mouse IgG-AF488 (1:500, A21202, Invitrogen) for p21 antibodies as well as mouse anti-Meisl/⅔ (1:200, sc-101850, SantaCruz) conjugated antibody, and slides were mounted with Vectashield antifade mounting medium (H1000, Vector Laboratories). […]

Another assay concerns kidney. To be noted: literature (ref. 21); cited from earlier work.

With “2-[2,6-Dimethoxy-4-[7-(1-methylpyrazol-4-yl)imidazo[1,2-a]pyridin-3-yl]phenyl]-5-ethyl-1,3,4-oxadiazole [SK-124]”, in assay [1], the “basal YAP/TAZ reporter activity” value is “block” and the “TGFß-stimulated YAP/TAZ reporter activity” value is given as “block”.

For `C=C1/C(=C\C=C2/CCC[C@]3(C)[C@@H]([C@H](C)CCCC(C)(C)O)CC[C@@H]23)C[C@@H](O)C[C@@H]1O` [calcitriol, 1,25-dihydroxy-vitamin D, reference compound], the “patterns of cisplatin-induced injury” value in the assay with human kidney organoids is given as “minimal effects”. In addition, in the assay with kidney, the “anti-fibrotic effects in kidney” value is recorded as “anti-fibrotic effects in kidney”.

Take `C=C[C@@]1(C)CC(=O)[C@]2(O)[C@@]3(C)[C@@H](O)CCC(C)(C)[C@@H]3[C@H](O)[C@H](OC(C)=O)[C@@]2(C)O1` [forskolin, reference compound]: in assay [1], the “basal YAP/TAZ reporter activity” value is on record as “block” and the “TGFß-stimulated YAP/TAZ reporter activity” value is “block”.
